Assay results published in US10407410B2, “Pyridin-3-yl acetic acid derivatives as inhibitors of human immunodeficiency virus replication” (priority 2016, dated 2019).

What follows are compounds tested on NL-RLuc virus (HIV) (assay: Inhibition of HIV replication (NL-RLuc luciferase reporter virus in MT-2 cells)). Conditions: Human immunodeficiency virus 1, MT2, 120 h.
Format: cell-based
Text: Inhibition of HIV Replication
A recombinant NL-RLuc proviral clone was constructed in which a section of the nef gene from NL4-3 was replaced with the Renilla Luciferase gene. This virus is fully infectious and can undergo multiple cycles of replication in cell culture. In addition, the luciferous reporter provides a simple and easy method for quantitating the extent of virus growth and consequently, the antiviral activity of test compounds. The plasmid pNLRLuc contains the proviral NL-Rluc DNA cloned into pUC18 at the PvuII site. The NL-RLuc virus was prepared by transfection of 293T cells with the plasmid pNLRLuc. Transfections were performed using the LipofectAMINE PLUS kit from Invitrogen (Carlsbad, Calif.) according to the manufacturer and the virus generated was titered in MT-2 cells. For susceptibility analyses, the titrated virus was used to infect MT-2 cells in the presence of compound, and after 5 days of incubation, cells were processed and quantitated for virus growth by the amount of expressed luciferase. Assay media was RPMI 1640 supplemented with 10% heat inactivated fetal bovine serum (FBS), 100 units/ml penicillin G/100 units/ml streptomycin, 10 mM HEPES buffer pH 7.55 and 2 mM L-glutamine. The results from at least 2 experiments were used to calculate the EC50 values. Luciferase was quantitated using the Dual Luciferase kit from Promega (Madison, Wis.). Susceptibility of viruses to compounds was determined by incubation in the presence of serial dilutions of the compound. The 50% effective concentration (EC50) was calculated by using the exponential form of the median effect equation where (Fa)=1/[1+(ED50/drug conc.)^m] (Johnson V A, Byington R T. Infectivity Assay. In Techniques in HIV Research. ed. Aldovini A, Walker B D. 71-76. New York: Stockton Press. 1990).

| Compound | EC50 [nM] |
| --- | --- |
| Cc1ccc(C[C@@H]2CCc3cc(-c4c(C)nc(C)c([C@H](OC(C)(C)C)C(=O)O)c4N4CCC(C)(C)CC4)ccc3O2)c(F)c1 [Example 30, (S)-2-tert-Butoxy-2-(4-(4,4-dimethylpiperidin-1-yl)-5-((S)-2-(2-fluoro-4-methylbenzyl)chroman-6-yl)-2,6-dimethylpyridin-3-yl)acetic acid] | 5 |
| CCOc1ccc(S(=O)(=O)N2Cc3ccc(-c4c(C)nc(C)c([C@H](OC(C)(C)C)C(=O)O)c4N4CCC(C)(C)CC4)cc3C2)cc1 [Example 23, (S)-2-(tert-butoxy)-2-(4-(4,4-dimethylpiperidin-1-yl)-5-(2-((4-ethoxyphenyl)sulfonyl)isoindolin-5-yl)-2,6-dimethylpyridin-3-yl)acetic acid] | 17 |
| Cc1nc(C)c([C@H](OC(C)(C)C)C(=O)O)c(N2CCC(C)(C)CC2)c1-c1ccc2c(c1)c(OCc1ccc(F)cc1)cc(=O)n2C [Example 20, (S)-2-(tert-butoxy)-2-(4-(4,4-dimethylpiperidin-1-yl)-5-(4-((4-fluorobenzyl)oxy)-1-methyl-2-oxo-1,2-dihydroquinolin-6-yl)-2,6-dimethylpyridin-3-yl)acetic acid] | 87 |
| Cc1nc(C)c([C@H](OC(C)(C)C)C(=O)O)c(N2CCC(C)(C)CC2)c1-c1ccc2c(c1)OCCN2C [Example 9, (S)-2-(tert-butoxy)-2-(4-(4,4-dimethylpiperidin-1-yl)-2,6-dimethyl-5-(4-methyl-3,4-dihydro-2H-benzo[b][1,4]oxazin-7-yl)pyridin-3-yl)acetic acid] | 87 |
| Cc1nc(C)c([C@H](OC(C)(C)C)C(=O)O)c(N2CCC(C)(C)CC2)c1-c1ccc2c(c1)CN(Cc1ccc(F)cc1)C2=O [Example 13, (S)-2-(tert-butoxy)-2-(4-(4,4-dimethylpiperidin-1-yl)-5-(2-(4-fluorobenzyl)-1-oxoisoindolin-5-yl)-2,6-dimethylpyridin-3-yl)acetic acid] | 12 |
| Cc1nc(C)c([C@H](OC(C)(C)C)C(=O)O)c(N2CCC(C)(C)CC2)c1-c1ccc2c(c1)OCCO2 [Example 3, (S)-2-(tert-butoxy)-2-(5-(2,3-dihydrobenzo[b][1,4]dioxin-6-yl)-4-(4,4-dimethylpiperidin-1-yl)-2,6-dimethylpyridin-3-yl)acetic acid] | 101 |
| Cc1nc(CO)c(-c2ccc3c(c2)CC[C@@H](Cc2ccccc2)O3)c(N2CCC(C)(C)CC2)c1[C@H](OC(C)(C)C)C(=O)O [Example 33, (S)-2-(5-((S)-2-Benzylchroman-6-yl)-4-(4,4-dimethylpiperidin-1-yl)-6-(hydroxymethyl)-2-methylpyridin-3-yl)-2-tert-butoxyacetic acid] | 7 |
| Cc1nc(C)c([C@H](OC(C)(C)C)C(=O)O)c(N2CCC(C)(C)CC2)c1-c1ccc2c(c1)CC/C(=C\c1ccc(F)cc1)C2 [Example 25, (S,E)-2-(tert-Butoxy)-2-(4-(4,4-dimethylpiperidin-1-yl)-5-(6-(4-fluorobenzylidene)-5,6,7,8-tetrahydronaphthalen-2-yl)-2,6-dimethylpyridin-3-yl)acetic acid] | 5 |
| Cc1nc(C)c([C@H](OC(C)(C)C)C(=O)O)c(N2CCC(C)(C)CC2)c1-c1ccc2c(c1)CC[C@](C)(Cc1ccc(F)cc1)O2 [Example 38, (S)-2-tert-Butoxy-2-(4-(4,4-dimethylpiperidin-1-yl)-5-((R)-2-(4-fluorobenzyl)-2-methylchroman-6-yl)-2,6-dimethylpyridin-3-yl)acetic acid] | 4 |
| Cc1nc(C)c([C@H](OC(C)(C)C)C(=O)O)c(N2CCC(C)(C)CC2)c1-c1ccc2c(c1)CCC2 [Example 5, (S)-2-(tert-butoxy)-2-(5-(2,3-dihydro-1H-inden-5-yl)-4-(4,4-dimethylpiperidin-1-yl)-2,6-dimethylpyridin-3-yl)acetic acid] | 56 |
| Cc1nc(C)c([C@H](OC(C)(C)C)C(=O)O)c(N2CCC(C)(C)CC2)c1-c1ccc2c(c1)CCN(Cc1cscn1)C2=O [Example 17, (S)-2-(tert-butoxy)-2-(4-(4,4-dimethylpiperidin-1-yl)-2,6-dimethyl-5-(1-oxo-2-(thiazol-4-ylmethyl)-1,2,3,4-tetrahydroisoquinolin-6-yl)pyridin-3-yl)acetic acid] | 24 |
| Cc1nc(C)c([C@H](OC(C)(C)C)C(=O)O)c(N2CCC(C)(C)CC2)c1-c1cnc2ccccc2c1 [Example 2, (S)-2-(tert-butoxy)-2-(4-(4,4-dimethylpiperidin-1-yl)-2,6-dimethyl-5-(quinolin-3-yl)pyridin-3-yl)acetic acid] | 73 |
| Cc1ncsc1CN1CCc2cc(-c3c(C)nc(C)c([C@H](OC(C)(C)C)C(=O)O)c3N3CCC(C)(C)CC3)ccc2C1=O [Example 16, (S)-2-(tert-butoxy)-2-(4-(4,4-dimethylpiperidin-1-yl)-2,6-dimethyl-5-(2-((4-methylthiazol-5-yl)methyl)-1-oxo-1,2,3,4-tetrahydroisoquinolin-6-yl)pyridin-3-yl)acetic acid] | 6 |
| Cc1ccc(C[C@H]2CCc3cc(-c4c(C)nc(C)c([C@H](OC(C)(C)C)C(=O)O)c4N4CCC(C)(C)CC4)ccc3O2)c(F)c1 [Example 31, (S)-2-tert-Butoxy-2-(4-(4,4-dimethylpiperidin-1-yl)-5-((R)-2-(2-fluoro-4-methylbenzyl)chroman-6-yl)-2,6-dimethylpyridin-3-yl)acetic acid] | 3 |
| Cc1nc(C)c([C@H](OC(C)(C)C)C(=O)O)c(N2CCC(C)(C)CC2)c1-c1coc2ccccc12 [Example 7, (2S)-2-(5-(benzofuran-3-yl)-4-(4,4-dimethylpiperidin-1-yl)-2,6-dimethylpyridin-3-yl)-2-(tert-butoxy)acetic acid] | 288 |
| Cc1nc(C)c([C@H](OC(C)(C)C)C(=O)O)c(N2CCC(C)(C)CC2)c1-c1ccc2c(c1)CCC(COc1ccccc1F)O2 (stereo partly drawn) [Example 40, (2S)-2-tert-Butoxy-2-(4-(4,4-dimethylpiperidin-1-yl)-5-(2-((2-fluorophenoxy)methyl)chroman-6-yl)-2,6-dimethylpyridin-3-yl)acetic acid] | 4 |
| Cc1nc(CO)c(-c2ccc3c(c2)CC[C@H](Cc2ccc(F)cc2)O3)c(N2CCC(C)(C)CC2)c1[C@H](OC(C)(C)C)C(=O)O [Example 37, (S)-2-tert-Butoxy-2-(4-(4,4-dimethylpiperidin-1-yl)-5-((R)-2-(4-fluorobenzyl)chroman-6-yl)-6-(hydroxymethyl)-2-methylpyridin-3-yl)acetic acid] | 1 |
| Cc1nc(C)c([C@H](OC(C)(C)C)C(=O)O)c(N2CCC(C)(C)CC2)c1-c1ccc2sc(C(=O)O)cc2c1 [Example 6, (S)-5-(5-(tert-butoxy(carboxy)methyl)-4-(4,4-dimethylpiperidin-1-yl)-2,6-dimethylpyridin-3-yl)benzo[b]thiophene-2-carboxylic acid] | 66000 |
| Cc1nc(C)c([C@H](OC(C)(C)C)C(=O)O)c(N2CCC(C)(C)CC2)c1-c1ccc2c(c1)CC[C@@](C)(Cc1ccc(F)cc1)O2 [Example 39, (S)-2-tert-Butoxy-2-(4-(4,4-dimethylpiperidin-1-yl)-5-((S)-2-(4-fluorobenzyl)-2-methylchroman-6-yl)-2,6-dimethylpyridin-3-yl)acetic acid] | 3 |
